Test [1] has as its system SJSA-1. Put plainly: Antiproliferative activity against human SJSA1 cells expressing wild-type p53 after 72 hrs by fluorescence plate reader analysis. It is filed as functional, cell-based. The note with it: SJSA-1, 72 h.
Test [2] can be described thus: Antiproliferative activity against p53-deficient human Saos2 cells after 72 hrs by fluorescence plate reader analysis. It is filed as functional, cell-based. The conditions noted are these: SAOS-2, 72 h.
Test [3] concerns the target E3 ubiquitin-protein ligase Mdm2 (Homo sapiens, UniProt Q00987). Put plainly: Inhibition of MDM2 (unknown origin) (2 to 188) assessed as inhibition of p53-MDM2 interaction by TR-FRET assay.

E3 ubiquitin-protein ligase Mdm2, sequence (Q00987 whole entry): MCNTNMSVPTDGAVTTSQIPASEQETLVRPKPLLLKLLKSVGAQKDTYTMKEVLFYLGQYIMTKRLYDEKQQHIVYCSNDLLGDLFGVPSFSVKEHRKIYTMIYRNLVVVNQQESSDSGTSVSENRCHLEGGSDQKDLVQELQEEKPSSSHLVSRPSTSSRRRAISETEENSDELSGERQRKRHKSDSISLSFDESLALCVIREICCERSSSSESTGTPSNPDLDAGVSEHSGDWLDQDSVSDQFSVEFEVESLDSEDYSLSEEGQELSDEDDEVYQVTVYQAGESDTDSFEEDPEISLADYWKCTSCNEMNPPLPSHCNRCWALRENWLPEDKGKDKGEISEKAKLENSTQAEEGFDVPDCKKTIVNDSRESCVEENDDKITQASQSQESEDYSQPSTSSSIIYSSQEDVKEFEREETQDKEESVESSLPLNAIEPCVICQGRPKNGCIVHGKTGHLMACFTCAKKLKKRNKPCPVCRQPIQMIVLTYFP

Turning to `Cc1nnc(-c2nc(C3CCCCC3)n(-c3cccc(Cl)c3F)c2-c2ccc(F)c(Cl)c2)o1`, the half-maximal inhibitory concentration (IC50) in test [1] is 5.9 µM; in test [2], greater than 30 µM. With `O=C(O)c1nc(-c2ccccc2)n(-c2cccc(Cl)c2F)c1-c1cccc(Cl)c1`, the IC50 was 12.2 µM in test [1] and greater than 30 µM in test [2]. The corresponding values for `O=C(O)c1nc(-c2ccccc2)n(-c2cccc(Cl)c2F)c1-c1ccc(F)c(Cl)c1` are 14 µM and greater than 30 µM. The corresponding values for `Cc1cccc(-c2nc(C(=O)O)c(-c3cccc(Cl)c3)n2-c2cc(Cl)ccc2C)c1` are 10.2 µM and greater than 30 µM. The matching figures for `Nc1nnc(-c2nc(C3CCCCC3)n(-c3cccc(Cl)c3F)c2-c2ccc(F)c(Cl)c2)o1`: 3.5 µM and greater than 30 µM. As to `Fc1ccc(-c2c(-c3nnn[nH]3)nc(C3CCCCC3)n2-c2cccc(Cl)c2F)cc1Cl`, the IC50 in test [1] is 4.4 µM; in test [2], greater than 30 µM. The corresponding values for `Cc1ccc(Cl)cc1-n1c(-c2ccccc2)nc(C(=O)O)c1-c1cccc(Cl)c1` are 16.1 µM and greater than 30 µM. As to `NC(=O)c1nc(C2CCCCC2)n(-c2cccc(Cl)c2F)c1-c1ccc(F)c(Cl)c1`, the IC50 was found to be 4.1 µM in test [1] and 29 µM in test [2]. `CC(C)(C)NC(=O)Cc1ccc(Cl)c(F)c1-n1c(C2CCCCC2)nc(-c2nnc(N)o2)c1-c1ccc(F)c(Cl)c1`: the IC50 is 0.5 µM in test [1] and 23 µM in test [2]. The matching figures for `O=C(O)c1nc(C2CCCCC2)n(-c2cccc(Cl)c2F)c1-c1ccc(F)c(Cl)c1`: 13.2 µM and greater than 30 µM. The corresponding values for `CNC(=O)Cc1ccc(Cl)c(F)c1-n1c(C2CCCCC2)nc(-c2nnc(N)o2)c1-c1ccc(F)c(Cl)c1` are 1.4 µM and 24 µM.

Take `Nc1nnc(-c2nc(C3CCCCC3)n(-c3c(CC(=O)NC4CCCCC4)ccc(Cl)c3F)c2-c2ccc(F)c(Cl)c2)o1`: the IC50 in test [1] stood at 1.4 µM; in test [2], 28 µM.

On to `O=C(O)c1nc(-c2ccccc2)n(-c2cccc(Cl)c2)c1-c1cccc(Cl)c1`, for which the IC50 in test [3] was 0.12 µM.

Consider `Nc1nnc(-c2nc(C3CCCCC3)n(-c3c(CC(=O)Nc4ccccc4)ccc(Cl)c3F)c2-c2ccc(F)c(Cl)c2)o1`, for which the 50% inhibitory concentration (IC50) in test [1] came out at 2.5 µM; in test [2], 30 µM.

(Values after ChEMBL document CHEMBL3259552, “Tetra-substituted imidazoles as a new class of inhibitors of the p53-MDM2 interaction” (Bioorg Med Chem Lett, 2014).)
